Reference: PubChem BioAssay AID1159564 (GlaxoSmithKline (GSK), 2015)
pIC50: −log10 of the molar value. Active and inactive are the calls of the source. No rule for the calls is given here.

System: L. donovani-infected THP-1 macrophages, intracellular amastigote imaging
Experiment: antileishmanial activity in infected THP-1 macrophages – imaging, THP-1 host macrophages, host toxicity (AID 1159564)
[1] = measured here: THP-1 host cell toxicity
[2] = measured here: amastigotes per macrophage

Row | SMILES | pIC50 | pIC50 [1] | pIC50 [2] | IC50
1 | Cc1nc(C(=O)Nc2ccc3c(c2)OCO3)nn1-c1ccc(Cl)cc1 | 5.70 | 4.89 | 5.80 | –
2 | CCOC(=O)c1cn[nH]c1S(=O)(=O)N1CCC1c1ccccc1 (configuration not stated) | – | < 4.30 | < 4.30 | > 50 µM (inactive)
3 | CCCCN(C(=O)c1ccc(NC(=O)C(C)C)cc1)c1ccccc1 | 5.30 | < 4.30 | 5.49 | –
4 | Cc1occc1C(=O)Nc1ccccc1C(=O)Nc1nccs1 | – | < 4.30 | < 4.30 | > 50 µM (inactive)
5 | O=C(Nc1nc(-c2ccc(F)cc2)cs1)c1ccc([N+](=O)[O-])s1 | 5.89 | 5.10 | 6.00 | –
6 | CN(C)Cc1ccc(N2CCC(NS(=O)(=O)c3ccc(Cl)cc3)CC2)cc1 | – | 4.60 | 4.60 | > 50 µM (inactive)
7 | CCn1c(NC(=O)Cc2ccc(F)cc2)nc2ccccc21 | 5.00 | < 4.30 | 5.20 | –
8 | Cc1cc2cncn2c(C2CCCCN2C(=O)c2cccs2)n1 (configuration not stated) | – | < 4.30 | < 4.30 | > 50 µM (inactive)
9 | OCCCNc1nc(Nc2ccncc2)nc2ccccc12 | – | < 4.30 | < 4.30 | > 50 µM (inactive)
10 | CC(=O)Nc1ccc(CN2CCC(N3CC(c4ccccc4)(c4ccccc4)OCC3=O)CC2)cc1 | 4.60 | 4.40 | 4.70 | –
11 | c1ccc2sc(Nc3nc4ncccc4[nH]3)nc2c1 | 5.60 | 4.80 | 5.89 | –
12 | CNC(=O)Oc1ccc(C(=O)NCc2ccccc2)cc1OC(=O)NC | – | < 4.30 | < 4.30 | > 50 µM (inactive)
13 | C=CCN(Cc1cccs1)C(=O)CSc1nnc(-c2ccc3c(c2)OCO3)o1 | 5.49 | < 4.30 | 5.89 | –
14 | CCN(CC)c1nc(Nc2ccncc2)nc2ccccc12 | 5.20 | 4.60 | 5.70 | –
15 | COc1cccc(C(=O)[C@H]2C[C@@H]2CN(Cc2ccccn2)Cc2ccccn2)c1 | 5.70 | < 4.30 | 5.80 | –
16 | O=C(Nc1ccccc1C(=O)Nc1ccccn1)c1ccco1 | – | < 4.30 | < 4.30 | > 50 µM (inactive)
17 | Cc1cn[nH]c1C1CCCN(Cc2nc3ccccc3n2C)C1 (configuration not stated) | 5.40 | 4.70 | 5.49 | –
18 | Cc1nccn1C1CCCN(C(=O)c2cc3c(F)cccc3s2)C1 (configuration not stated) | – | < 4.30 | < 4.30 | > 50 µM (inactive)
19 | c1cc(-c2ncc(-c3ccn[nH]3)s2)ccn1 | – | < 4.30 | 5.00 | > 50 µM (inactive)
20 | O=c1[nH]ccc2ccc(-c3ccncc3)cc12 | – | 4.40 | 4.70 | > 50 µM (inactive)
21 | O=C(CSc1nnc(-c2ccc3c(c2)OCO3)o1)N(Cc1ccco1)CC(F)(F)F | 5.10 | < 4.30 | 5.49 | –
22 | CN(Cc1ccccc1)Cc1nnnn1C1CCN(Cc2ccc(-n3ccnc3)cc2)CC1 | – | 4.49 | < 4.30 | > 50 µM (inactive)
23 | Cc1c(C#N)c([N+](=O)[O-])nn1Cc1cccc(Cl)c1Cl | – | 4.80 | 4.80 | > 50 µM (inactive)

Row | SMILES | pIC50 | pIC50 [1] | pIC50 [2] | IC50
24 | Cc1cc2nc(CN(C)Cc3ncccc3C)[nH]c2cc1C | 6.20 | 5.10 | 6.30 | –
25 | O=S(=O)(NCC(c1cccnc1)N1CCN(c2ccc(F)cc2)CC1)c1cccs1 (configuration not stated) | – | < 4.30 | < 4.30 | > 50 µM (inactive)
26 | O=C(NC1C(=O)N(c2ccccc2)C1c1cccnc1)c1ccc(Cl)s1 (configuration not stated) | – | < 4.30 | 6.10 | > 50 µM (inactive)
27 | CN(Cc1ccc(F)cc1)c1ccc(OCC(=O)N2CCCCC2c2cccnc2)nn1 (configuration not stated) | – | 4.49 | < 4.30 | > 50 µM (inactive)
28 | O=C(CC1(O)C(=O)N(Cc2ccccc2)c2ccc(Br)cc21)c1cccnc1 (configuration not stated) | – | 4.40 | 4.49 | > 50 µM (inactive)
29 | Cc1cc(C#N)c([N+](=O)[O-])cc1Br | 4.40 | 4.60 | 4.49 | –
30 | O=C(Cc1ccc2c(c1)CCC2)Nc1n[nH]c(-c2ccccn2)n1 | 5.20 | < 4.30 | 5.20 | –
31 | CS(=O)(=O)N1CCC(Nc2ncc(Br)c(Nc3cccc(F)c3C(N)=O)n2)CC1 | 5.80 | 6.00 | 6.10 | –
32 | COc1cccc(-c2cc(C(F)(F)F)nc(-n3ccc([N+](=O)[O-])n3)n2)c1 | – | < 4.30 | < 4.30 | > 50 µM (inactive)
33 | Clc1ccc(OCCN2CCCCC2c2cccnc2)c(Cl)c1 (configuration not stated) | – | < 4.30 | 5.30 | > 50 µM (inactive)
34 | Cc1nn(-c2nc(N)nc(-c3ccccn3)n2)c(C)c1Cc1ccccc1 | 5.49 | < 4.30 | 5.60 | –
35 | COc1ccc(CNc2nsc3ccccc23)cc1OC | 5.20 | 4.60 | 5.30 | –
36 | O=C1NCCn2ccc(Nc3nc(NC4CCC(O)CC4)ncc3Cl)c21 (configuration not stated) | 6.00 | 6.40 | 6.20 | –
37 | CC1CCCN(S(=O)(=O)c2ccc(C(=O)Nc3nc(-c4ccccn4)cs3)cc2)C1 (configuration not stated) | 6.60 | 5.30 | 6.80 | –
38 | Cc1nn(-c2nc(N)nc(-c3ccccn3)n2)c(N)c1-c1ccccc1 | 5.49 | 4.70 | 5.70 | –
39 | COc1cnc2ccc(=O)n(CCN3CCC(NC(=O)Cc4ccc(Cl)c(Cl)c4)CC3)c2c1 | 4.40 | 4.60 | 5.30 | –
40 | CC(C)c1nn(-c2nc(N)nc(-c3ccccn3)n2)c(N)c1C1CCCCC1 | 6.00 | 5.30 | 6.10 | –
41 | COc1ccc(C2=NCC(CSc3nnc(-c4ccc5c(c4)OCO5)o3)S2)cc1 (configuration not stated) | 6.00 | < 4.30 | 6.40 | –
42 | O=C(c1ccccc1)N1CCC(C(=O)N2CCC(Oc3ccccc3Cl)CC2)CC1 | – | < 4.30 | 4.49 | > 50 µM (inactive)
43 | Cc1c(C(C)NC(=O)Nc2cccc(Cl)c2)sc2ncnn12 (configuration not stated) | – | < 4.30 | 5.70 | > 50 µM (inactive)
44 | O=C(NCc1ccc(Cl)cc1)C1CN(C(=O)c2ccc(F)cc2)CCS1 (configuration not stated) | – | < 4.30 | < 4.30 | > 50 µM (inactive)
45 | NC(N)=Nc1nc(-c2ccc(NC(N)=NCCN3CCCC3)cc2)cs1 | – | < 4.30 | < 4.30 | > 50 µM (inactive)
46 | CC(=O)NC1(c2ccccc2)CCN(CC(=O)Nc2ccccc2-c2ccccc2)CC1 | – | < 4.30 | 4.40 | > 50 µM (inactive)

Row | SMILES | pIC50 | pIC50 [1] | pIC50 [2] | IC50
47 | COc1ccccc1C1CC(c2ccc(NS(C)(=O)=O)cc2)=NN1C(=O)c1cccs1 (configuration not stated) | 5.40 | < 4.30 | 5.60 | –
48 | Nc1nc(-c2ccccn2)nc(N)c1Cc1c(F)cccc1Cl | 5.89 | 4.49 | 6.00 | –
49 | O=C(Nc1cccc(S(=O)(=O)Nc2ccc(Br)cc2)c1)c1ccc([N+](=O)[O-])s1 | 6.00 | 5.00 | 6.10 | –
50 | O=C(c1ccc(OCCCc2cnc[nH]2)cc1)C1CC1 | – | < 4.30 | 5.10 | > 50 µM (inactive)
51 | COc1ccc(C(=O)N2CCC(Nc3cccnc3)C2)c(OC)n1 (configuration not stated) | – | < 4.30 | < 4.30 | > 50 µM (inactive)
52 | COc1cc(-c2noc(CC#N)n2)ccc1OC(F)F | – | 4.30 | < 4.30 | > 50 µM (inactive)
53 | N#Cc1cc([N+](=O)[O-])ccc1NC1CCCCCC1 | – | < 4.30 | < 4.30 | > 50 µM (inactive)
54 | CC1=C(C(=O)Nc2ccc(Cl)cc2)C(c2ccncc2)n2ncc(C(=O)Nc3ccccc3)c2N1 (configuration not stated) | – | 4.89 | < 4.30 | > 50 µM (inactive)
55 | CC1=NN(C(=O)CCn2cnc([N+](=O)[O-])n2)C(O)(C(F)(F)F)C1 (configuration not stated) | – | < 4.30 | < 4.30 | > 50 µM (inactive)
56 | O=C(NCCc1cccnc1)c1ccc(-c2ccccc2F)o1 | – | < 4.30 | < 4.30 | > 50 µM (inactive)
57 | O=C(NC(c1ccc(Cl)cc1)c1cnccn1)C1CCN(C(=O)Nc2cccc(C(F)(F)F)c2)CC1 (configuration not stated) | – | 4.40 | < 4.30 | > 50 µM (inactive)
58 | Cc1cccc(NS(=O)(=O)c2ccc3c(c2)C(=O)c2cc(S(=O)(=O)Nc4cccc(C)c4C)ccc2-3)c1C | – | < 4.30 | < 4.30 | > 50 µM (inactive)
59 | COc1ccc(NC(=O)c2ccc(NC(=O)CN(c3ccccc3C)S(C)(=O)=O)cc2)cc1 | – | < 4.30 | 5.10 | > 50 µM (inactive)
60 | CNc1c(C(N)=O)c(-c2ccc3scnc3c2)nn1CC(F)(F)F | – | < 4.30 | < 4.30 | > 50 µM (inactive)
61 | C[C@@H](Oc1cc(-n2cnc3cc(N)ccc32)sc1C(N)=O)c1ccccc1Cl | 4.49 | 4.60 | 4.70 | –
62 | CCOc1cc(NCCCN2CCN(C)CC2)c2ncccc2c1 | 5.89 | 5.20 | 6.10 | –
63 | O=c1oc2ccccc2n1C1CCN(Cc2ccccc2-c2cccnc2)CC1 | – | 4.89 | 5.20 | > 50 µM (inactive)
64 | CC(C(=O)Nc1ccccc1F)N(C)CC(=O)Nc1cccc2ccccc12 (configuration not stated) | – | < 4.30 | < 4.30 | > 50 µM (inactive)
65 | FC(F)(F)c1cc(C2CCCN(Cc3c[nH]c4ccccc34)C2)nc2ncnn12 (configuration not stated) | – | 4.80 | < 4.30 | > 50 µM (inactive)
66 | CCS(=O)(=O)Nc1ccc(C2=NN(C(=O)c3cccs3)C(c3ccccc3OC)C2)cc1 (configuration not stated) | 5.10 | < 4.30 | 5.10 | –
67 | O=C1CSC(c2cccnc2)N1c1ccc(Cl)cc1Cl (configuration not stated) | – | < 4.30 | < 4.30 | > 50 µM (inactive)
68 | O=C(Nc1nc(-c2ccccn2)cs1)c1ccccc1-n1cnnn1 | 5.20 | 5.30 | 5.40 | –
69 | Cn1ccnc1CN1CCc2[nH]cnc2C1c1ccccc1OCc1ccccc1 (configuration not stated) | – | < 4.30 | < 4.30 | > 50 µM (inactive)
